In ChEMBL document CHEMBL5154750 (Bioorg Med Chem, 2022):

What was measured:
[1] = tested on: HCT-116; assay: Cytotoxicity against human HCT-116 cells assessed as cell viability at 10 uM relative to control; type: functional; conditions: read-out: Activity
[2] = tested on: HCT-116; assay: Cytotoxicity against human HCT-116 cells assessed as cell viability at 1 uM relative to control; type: functional; conditions: read-out: Activity
[3] = tested on: HL-60; assay: Cytotoxicity against human HL-60 cells assessed as cell viability at 10 uM relative to control; type: functional; conditions: read-out: Activity
[4] = tested on: HL-60; assay: Cytotoxicity against human HL-60 cells assessed as cell viability at 1 uM relative to control; type: functional; conditions: read-out: Activity
[5] = tested on: HCT-116; assay: Cytotoxicity against human HCT-116 cells assessed as reduction in cell viability; type: functional, cell-based
[6] = tested on: HL-60; assay: Cytotoxicity against human HL-60 cells assessed as reduction in cell viability; type: functional, cell-based
[7] = tested on: HCT-116; assay: Growth inhibition of human HCT-116 cells at 1 uM relative to control; type: functional; set-up: scale not given: the % may be the effect or the level left
[8] = Homo sapiens, HL-60, read-out: IC50

| Structure (SMILES) | viability at 10 µM [1] | viability at 1 µM [2] | viability at 10 µM [3] | viability at 1 µM [4] | IC50 [5] | IC50 [6, 8] | Activity [7] | IC50 ([6]; hl-60) |
| --- | --- | --- | --- | --- | --- | --- | --- | --- |
| O=C1C=C2C(I)=C[C@@H]3C[C@]2(CN3Cc2ccccc2)O1 | 1% | 5% | 0% | 4% | 60 nM | 350 nM | 80.9% | – |
| O=C1C=C2C=C[C@@H]3C[C@]2(CN3Cc2ccccc2)O1 | 86% | 100% | 3% | 11% | – | 100 nM | – | – |
| CC(C)CN1C[C@]23C[C@H]1C=CC2=CC(=O)O3 | 78% | 83% | 1% | 15% | – | – | – | – |
| COc1cccc2c1C(=O)c1c(O)c3c(c(O)c1C2=O)C[C@@](O)(C(=O)CO)C[C@@H]3O[C@H]1C[C@H](N)[C@H](O)[C@H](C)O1 [DOXORUBICIN] | – | – | – | – | 10 nM | – | – | 90 nM |
| O=C1C=C2C=C[C@@H]3C[C@@]2(O1)[C@H]1CCCCN31 [SECURININE] | 13% | 98% | 0.4% | 8% | 8600 nM | 100 nM | – | – |
